Experimental data as given in patent publication US6365360B1, “Methods of identifying modulators of human IP prostaglandin receptor” (Merck Frosst Canada & Co., priority 1993, dated 2002).

Tests used:
[1] = molecular target: T1, human prostaglandin I2 (IP) receptor (Homo sapiens, UniProt P43119); assay: [3H]iloprost competition binding to membranes of pcDNAIamp-hIP transfected COS-M6 cells; conditions: for competition for [3H]iloprost specific binding to the hIP receptor: at a concentration of 30 μM; for IC50: read-out: IC50, competition for [3H]iloprost specific binding, 4 nM [3H]iloprost, COS-M6 membranes, pH 6.0, 45 min at 30° C.
T1 construct: A DNA molecule encoding the full length IP protein has been isolated and purified; expressed in transfected cells; host or cells: COS-M6 cells (membrane fraction), pcDNAIamp-hIP, DEAE-dextran transfection

[2] = molecular target: T2, IP receptor (hIP cDNA) (Homo sapiens, UniProt P43119); assay: CFTR-mediated Cl- current in Xenopus oocytes co-injected with pcDNAIamp-IP and pcDNAIamp-CFTR (voltage clamp); format: cell-based; conditions: oocyte clamped at -60 mV, 48 h after injection
T2 construct: A DNA molecule encoding the full length IP protein has been isolated and purified; expressed in transfected cells; host or cells: Xenopus laevis oocytes, nuclear injection of pcDNAIamp-IP plus pcDNAIamp-CFTR
Method: FIG. 5A and 5B —Expression of the prostaglandin 12 receptor in IP cDNA-injected Xenopus oocytes is shown.
(§1) The voltage-clamp experiments shown here were performed 48 hr after nuclear injection and are representative of 6 separate experiments with oocytes from 3 different frogs.
(§2) Oocytes were taken from adult females of Xenopus laevis using standard surgical procedure (Colman, A., 1984 In: Transcription and Translation—A Practical Approach, IRL Press). To remove follicle cells, oocytes were treated for 2-3 h with freshly made collagenase (2 mg/ml, type 2, Worthington Biochemical Corp., Freehold, N.J.) in Ca^2+-free ND96 solution (ND96 in mM: NaCl 96, KCl 2, MgCl2 1, HEPES 5, Na-pyruvate 2.5, theophylline 0.5, gentamicin […], +1.8 CaCl2, pH 7.6). Defolliculated stage 5-6 oocytes were selected and maintained in ND96 solution. Oocyte nuclei were injected with 1.6 ng of pcDNAlamp-IP plus 2.5 ng of pcDNAIamp-CFTR and then incubated at 18° C. for 48 h before challenge with agonist. CFTR (cystic fibrosis transmembrane regulator, a cAMP dependent Cl^− channel) was co-expressed with IP receptor in these oocytes and served as a reporter of changes in intracellular cAMP levels. Functional activity was determined by measurement of Iloprost-induced CFTR-mediated Cl^− current. An oocyte was placed in a 0.5 ml perfusion chamber and voltage clamped at −60 mV (with microelectrodes of 0.5-2.0 MW resistance filled with 3 M KCl) using a Turbo TEC 01C amplifier (NPl Instruments, Germany). Ligand-containing solution was perfused and the current response was recorded.
(§3) This rank order of potency is consistent with that reported for the IP receptor [Coleman, et al., 1990. Comprehensive Medicinal Chemistry (Hansch, C., Sammes, P. G., Taylor, J. B., and Emmett, J. C., Eds) Vol. 3, pp. 643-714, Pergamon, Press, Oxford].

[3] = tested on: endogenous IP receptors in oocytes; assay: Control oocytes injected with CFTR cDNA alone (voltage clamp); format: cell-based, Xenopus laevis; conditions: 100 nM
Method: The broken line represents the zero current level.
as §1, §2, §3

T1 sequence (P43119 whole entry): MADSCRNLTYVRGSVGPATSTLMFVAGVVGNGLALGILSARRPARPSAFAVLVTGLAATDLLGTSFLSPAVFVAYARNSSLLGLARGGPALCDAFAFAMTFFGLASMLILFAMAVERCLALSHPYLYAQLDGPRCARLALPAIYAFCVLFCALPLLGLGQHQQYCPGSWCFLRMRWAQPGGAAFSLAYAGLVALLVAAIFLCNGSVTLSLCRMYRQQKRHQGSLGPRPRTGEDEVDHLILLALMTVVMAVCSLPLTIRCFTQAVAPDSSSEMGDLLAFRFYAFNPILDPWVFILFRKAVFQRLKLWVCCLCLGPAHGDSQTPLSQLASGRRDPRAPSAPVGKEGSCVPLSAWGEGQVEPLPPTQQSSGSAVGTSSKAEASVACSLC
T2 sequence (P43119 whole entry): as above

| competition for [3H]iloprost specific binding to the hIP receptor [1] | CFTR-mediated Cl- current response ([2]; 100 nM) | current response in control (CFTR alone injected) oocytes [3] | IC50 [1] [µM] | CFTR-mediated Cl- current response ([2]; perfusion of 1-100 nM) | Compound |
| --- | --- | --- | --- | --- | --- |
| essentially inactive | not detectable | no responses | – | – | CCCCC[C@H](O)/C=C/[C@H]1C(=O)C[C@H](O)[C@@H]1C/C=C\CCCC(=O)O [PGD2] |
| – | not detectable | no responses | ~10 | – | CCCCC[C@H](O)/C=C/[C@H]1[C@H](O)CC(=O)[C@@H]1C/C=C\CCCC(=O)O [PGE2] |
| – | – | – | ~10 | – | CCCCC[C@H](O)/C=C/[C@@H]1[C@@H](C/C=C\CCCC(=O)O)[C@@H](O)C[C@H]1O [PGF2α] |
| essentially inactive | – | – | – | – | CCCCC[C@H](O)/C=C/[C@@H]1[C@@H](C/C=C\CCCC(=O)O)[C@H]2CO[C@@H]1C2 [U46619] |
| – | – | no responses | – | prominent current responses | CC#CCC(C)[C@H](O)/C=C/[C@@H]1[C@H]2C/C(=C/CCCC(=O)O)C[C@H]2C[C@H]1O (stereo partly shown) [iloprost] |
